Reference: publication PMC10987639 (2024)

What was measured:
[1] = tested on: yjdF riboswitch aptamer domain from R. gauvreauii, P2a loop modified for Fab BL3-6 binding (crystallization construct) (RNA, riboswitch) GGACAAAGAUAAAAACACAACGUAUGGCGAAACACGUCAUACAGAUCCGGUAGGUAGUCCGGACAUAAACAGCGGUAUAAAGCGCUGUUUAUAAGUAACCUUCCUCCUUAGGUCGUCCAUUCUUUGUC; assay: X-ray crystallography (2.77 Å); conditions: Mg2+, K+ (PDB ligands; concentrations not in material); co-crystal with Fab BL3-6, potassium osmate(VI) soak, pH 7.5; two ligand orientations
[2] = tested on: yjdF riboswitch aptamer domain from R. gauvreauii, P2a loop modified for Fab BL3-6 binding (crystallization construct) (RNA, riboswitch) GGACAAAGAUAAAAACACAACGUAUGGCGAAACACGUCAUACAGAUCCGGUAGGUAGUCCGGACAUAAACAGCGGUAUAAAGCGCUGUUUAUAAGUAACCUUCCUCCUUAGGUCGUCCAUUCUUUGUC; assay: X-ray crystallography (3.05 Å); conditions: Mg2+ (PDB ligand; concentration not in material); co-crystal with Fab BL3-6, pH 7.5; ligand orientation ambiguous

binding [1] | binding [2] | SMILES
yes |  | COc1ccc2c(c[n+](C)c3c4cc5c(cc4ccc23)OCO5)c1OC
 | yes | Nc1ccc2cc3ccc(N)cc3nc2c1
